Results: patent US11319322B2, “Substituted aryl ether compound, preparation method thereof, pharmaceutical composition and use thereof” (Xiamen University, priority 2017, dated 2022)

Experiments:
CCDC6-RET-BaF3 = molecular target: T1, CCDC6-RET-BaF3 (Homo sapiens, UniProt P07949); assay: Growth inhibition of CCDC6-RET-BaF3 cells stably transfected with kinase (MTS); format: cell-based; settings: 48 h, read-out: CCDC6-RET (IC50/nM)
T1 construct: fused on or other part: Q16204 (Coiled-coil domain-containing protein 6)
Method: (§1) Growth inhibitory activity of compounds on cell lines stably transfected with kinase
(§2) The activity of compounds against kinase RET is evaluated by their effect of inhibiting growth of cell lines stably transfected with kinase CCDC6-RET-BaF3, KIF5B-RET-BaF3, and wild-type BaF3 (Proc. Natl. Acad. Sci. USA., 2006, 103, 3153-8.). The growth of the cell lines stably transfected with kinase CCDC6-RET-BaF3, KIF5B-RET-BaF3 depends on their kinase activity. If a compound can inhibit the activity of the kinase RET per se or the activity of the RET signaling pathway, the compound can inhibit the growth of BaF3 cells stably transfected with kinase. […] Therefore, a larger ratio between IC50 of a compound to wild-type BaF3 and IC50 of the compound to the cell lines stably transfected with kinase CCDC6-RET-BaF3, KIF5B-RET-BaF3 indicates better targeting.
(§3) The specific test method is given as follows:
(§4) 1) Medium: DMEM (Dulbecco's modified eagle medium) or RPMI 1640 (containing 10% fetal bovine serum, 100 μg/mL ampicillin, 100 μg/mL streptomycin).
(§5) 2) Reagents: MTS reaction solution (containing 2 mg/mL of MTS [3-(4,5-dimethylthiazol-2-yl)-5-(3-carboxymethoxyphenyl)-2-(4-sulfophenyl)-2H-tetrazolium, inner Salt]; 100 μg/mL PES (phenazine […])).
(§6) 3) Compound test: cells stably transfected with kinase (CCDC6-RET-BaF3, KIF5B-RET-BaF3) or wild-type BaF3 cells (2×10^4 cells/well) were incubated into a 96-well culture plate, the volume of cell culture fluid was 90 μL, and then 10 μL of the compound at each gradient concentration was added (the highest concentration was 10 μM, which was diluted stepwise by ⅓, and 8 concentration points were set in total; the system contained 0.1% DMSO (dimethyl sulfoxide)). The cell plate with uniformly mixed compound was cultured in a cell culture incubator (37° C.; 5% CO2) for 48 h, then 20 μL of MTS reaction solution was added, uniformly mixed and incubated in the cell culture incubator (37° C.; 5% CO2) for 1-4 hr, OD values at 490 nm were measured by a microplate reader (VARIOSKAN FLASH, Thermo). Three parallels were set in each group of experiments, with 0.1% (a final concentration) DMSO as a negative control, and a medium without cells or compounds as a blank control. The cell growth inhibition rate was calculated by the following formula: Cell growth inhibition rate %=1−(ODexperimental group−ODblank group)/(ODnegative group−ODblank group)×100%
(§7) 4) IC50 calculation: The semi-inhibitory concentration of the compound acting on cell growth was calculated using GradPad Prism 5 software according to the measured cell growth inhibition rate.

KIF5B-RET-BaF3 = molecular target: T2, KIF5B-RET-BaF3 (Homo sapiens, UniProt P07949); assay: Growth inhibition of KIF5B-RET-BaF3 cells stably transfected with kinase (MTS); format: cell-based; settings: 48 h, read-out: KIF5B-RET (IC50/nM)
T2 construct: fused on or other part: P33176 (Kinesin-1 heavy chain)
Method: as §1, §2, §3, §4, §5, §6, §7

T2 sequence (P07949 whole entry, change not shown, the tested form may be a part): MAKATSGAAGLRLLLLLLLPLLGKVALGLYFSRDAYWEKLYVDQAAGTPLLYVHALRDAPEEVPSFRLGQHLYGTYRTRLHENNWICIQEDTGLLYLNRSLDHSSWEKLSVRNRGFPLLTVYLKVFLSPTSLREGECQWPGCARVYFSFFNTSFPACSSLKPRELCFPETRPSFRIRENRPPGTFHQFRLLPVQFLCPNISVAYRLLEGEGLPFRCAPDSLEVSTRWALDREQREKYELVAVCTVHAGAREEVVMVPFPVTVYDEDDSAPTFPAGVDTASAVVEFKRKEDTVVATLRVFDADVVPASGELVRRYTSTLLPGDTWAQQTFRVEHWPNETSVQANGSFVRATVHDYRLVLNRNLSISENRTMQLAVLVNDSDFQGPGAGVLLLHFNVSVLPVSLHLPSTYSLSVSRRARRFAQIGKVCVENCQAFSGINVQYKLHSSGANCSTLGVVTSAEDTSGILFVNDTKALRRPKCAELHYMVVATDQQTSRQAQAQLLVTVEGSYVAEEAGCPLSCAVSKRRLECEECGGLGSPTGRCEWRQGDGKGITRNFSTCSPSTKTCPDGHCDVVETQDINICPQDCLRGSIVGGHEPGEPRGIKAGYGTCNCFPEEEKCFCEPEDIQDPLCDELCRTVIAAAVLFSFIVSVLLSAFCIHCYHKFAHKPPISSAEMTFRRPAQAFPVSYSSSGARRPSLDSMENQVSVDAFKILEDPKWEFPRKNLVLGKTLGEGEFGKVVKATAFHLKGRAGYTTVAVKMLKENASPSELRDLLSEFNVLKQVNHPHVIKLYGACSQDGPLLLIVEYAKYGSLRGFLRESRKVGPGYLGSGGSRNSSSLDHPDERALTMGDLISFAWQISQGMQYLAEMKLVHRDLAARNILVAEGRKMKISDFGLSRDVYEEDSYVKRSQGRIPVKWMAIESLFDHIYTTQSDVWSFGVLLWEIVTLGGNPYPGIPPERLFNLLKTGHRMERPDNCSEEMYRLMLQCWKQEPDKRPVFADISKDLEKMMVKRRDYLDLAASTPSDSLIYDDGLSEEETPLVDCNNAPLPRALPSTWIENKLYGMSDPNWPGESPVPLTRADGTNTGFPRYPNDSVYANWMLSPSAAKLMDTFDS
T1 sequence (P07949 whole entry, change not shown, the tested form may be a part): as above

GI50 (CCDC6-RET-BaF3) | GI50 (KIF5B-RET-BaF3) | SMILES
2070 nM | 1390 nM | CN1CCN(Cc2ccc(C(=O)Nc3cc(Oc4nc(-c5cccnc5)nc5c4cnn5C)ccc3Cl)cc2C(F)(F)F)CC1 [II-k-1]
15.8 nM | 114 nM | CN1CCN(Cc2ccc(C(=O)Nc3cc(Oc4nc(-c5ccncc5)nc5c4cnn5C)ccc3Cl)cc2C(F)(F)F)CC1 [II-k-2]
30.2 nM | 17.8 nM | Cc1ccc(C(=O)Nc2ccc(CN3CCN(C)CC3)c(C(F)(F)F)c2)cc1Oc1nc(-c2ccncc2)nc2c1cnn2C [II-m-2]
348 nM | 97.7 nM | Cc1ccc(C(=O)Nc2ccc(CN3CCN(C)CC3)c(C(F)(F)F)c2)cc1Oc1nc(-c2ccccc2)nc2c1cnn2C [II-m-3]
848 nM | 152 nM | Cc1ccc(-c2nc(Oc3cc(C(=O)Nc4ccc(CN5CCN(C)CC5)c(C(F)(F)F)c4)ccc3C)c3cnn(C)c3n2)cc1 [II-m-4]
807 nM | 320 nM | Cc1ccc(C(=O)Nc2ccc(CN3CCN(C)CC3)c(C(F)(F)F)c2)cc1Oc1nc(-c2cccc(Cl)c2)nc2c1cnn2C [II-m-5]
696 nM | 114 nM | Cc1ccc(C(=O)Nc2ccc(CN3CCN(C)CC3)c(C(F)(F)F)c2)cc1Oc1nc(-c2ccc(Cl)cc2)nc2c1cnn2C [II-m-6]
178 nM | 28.3 nM | Cc1ccc(C(=O)Nc2ccc(CN3CCN(C)CC3)c(C(F)(F)F)c2)cc1Oc1nc(-c2cccc(O)c2)nc2c1cnn2C [II-m-7]
166 nM | 56.9 nM | Cc1ccc(C(=O)Nc2ccc(CN3CCN(C)CC3)c(C(F)(F)F)c2)cc1Oc1nc(-c2ccc(O)cc2)nc2c1cnn2C [II-m-8]
75.1 nM | 14.6 nM | Cc1ccc(C(=O)Nc2ccc(CN3CCN(C)CC3)c(C(F)(F)F)c2)cc1Oc1nc(-c2ccoc2)nc2c1cnn2C [II-m-9]
449 nM | 36.4 nM | Cc1ccc(C(=O)Nc2ccc(CN3CCN(C)CC3)c(C(F)(F)F)c2)cc1Oc1nc(-c2ccsc2)nc2c1cnn2C [II-m-10]
31.8 nM | 14.9 nM | Cc1ccc(C(=O)Nc2ccc(CN3CCN(C)CC3)c(C(F)(F)F)c2)cc1Oc1nc(Nc2cccnc2)nc2c1cnn2C [II-m-11]
123 nM | 69.7 nM | Cc1ccc(C(=O)Nc2ccc(CN3CCN(C)CC3)c(C(F)(F)F)c2)cc1Oc1nc(Nc2ccccc2)nc2c1cnn2C [II-m-12]
253 nM | 172 nM | Cc1ccc(Nc2nc(Oc3cc(C(=O)Nc4ccc(CN5CCN(C)CC5)c(C(F)(F)F)c4)ccc3C)c3cnn(C)c3n2)cc1 [II-m-13]
9.31 nM | 21.6 nM | Cc1ccc(C(=O)Nc2ccc(CN3CCN(C)CC3)c(C(F)(F)F)c2)cc1Oc1nc(NC2CC2)nc2c1cnn2C [II-m-14]
111 nM | 18 nM | Cc1ccc(C(=O)Nc2ccc(CN3CCN(C)CC3)c(C(F)(F)F)c2)cc1Oc1nc(N2CCOCC2)nc2c1cnn2C [II-m-15]
384 nM | 84.6 nM | Cc1ccc(C(=O)Nc2ccc(CN3CCN(C)CC3)c(C(F)(F)F)c2)cc1Oc1nc(N2CC(C)OC(C)C2)nc2c1cnn2C (stereo not drawn) [II-m-16]
1100 nM | 160 nM | Cc1ccc(C(=O)Nc2ccc(CN3CCN(C)CC3)c(C(F)(F)F)c2)cc1Oc1nc(N2CCN(C)CC2)nc2c1cnn2C [II-m-17]
257 nM | 34.3 nM | Cc1ccc(C(=O)Nc2ccc(CN3CCN(C)CC3)c(C(F)(F)F)c2)cc1Oc1nc(N(C)C)nc2c1cnn2C [II-m-18]
54.9 nM | 124 nM | Cc1ccc(C(=O)Nc2ccc(CN3CCN(C)CC3)c(C(F)(F)F)c2)cc1Oc1ncnc2c1cnn2C [II-m-19]
1100 nM | 916 nM | Cc1ccc(C(=O)Nc2ccc(CN3CCN(C)CC3)c(C(F)(F)F)c2)cc1Oc1nc(-c2ccncc2)nc2c1cnn2C(C)C [II-m-23]
1520 nM | 440 nM | Cc1ccc(Oc2nc(-c3ccncc3)nc3c2cnn3C)cc1C(=O)Nc1ccc(CN2CCN(C)CC2)c(C(F)(F)F)c1 [II-n-2]
4170 nM | 4020 nM | CN1CCN(Cc2ccc(NC(=O)c3cc(Oc4nc(-c5cccnc5)nc5c4cnn5C)ccc3Cl)cc2C(F)(F)F)CC1 [II-o-1]

GI50 (CCDC6-RET-BaF3) | GI50 (KIF5B-RET-BaF3) | SMILES
108 nM | 130 nM | CN1CCN(Cc2ccc(NC(=O)c3cc(Oc4nc(-c5ccncc5)nc5c4cnn5C)ccc3Cl)cc2C(F)(F)F)CC1 [II-o-2]
268 nM | 251 nM | CN1CCN(Cc2cc(NC(=O)c3cccc(Oc4nc(-c5cccnc5)nc5c4cnn5C)c3)cc(C(F)(F)F)c2)CC1 [II-p-1]
458 nM | 521 nM | CN1CCN(Cc2cc(NC(=O)c3cccc(Oc4nc(-c5ccncc5)nc5c4cnn5C)c3)cc(C(F)(F)F)c2)CC1 [II-p-2]
264 nM | 482 nM | Cc1ccc(C(=O)Nc2cc(CN3CCN(C)CC3)cc(C(F)(F)F)c2)cc1Oc1nc(-c2cccnc2)nc2c1cnn2C [II-s-1]
188 nM | 355 nM | Cc1ccc(C(=O)Nc2cc(CN3CCN(C)CC3)cc(C(F)(F)F)c2)cc1Oc1nc(-c2ccncc2)nc2c1cnn2C [II-s-2]
1570 nM | 2620 nM | Cc1cn(-c2cc(NC(=O)c3ccc(C)c(Oc4nc(-c5ccncc5)nc5c4cnn5C)c3)cc(C(F)(F)F)c2)cn1 [II-t-2]
7230 nM | 7940 nM | Cc1ccc(C(=O)Nc2cc(C(F)(F)F)cc(C(F)(F)F)c2)cc1Oc1nc(-c2cccnc2)nc2c1cnn2C [II-v-1]
1200 nM | 1200 nM | CCC(=O)NCC1CCN(c2ccc(NC(=O)c3ccc(C)c(Oc4nc(-c5cccnc5)nc5c4cnn5C)c3)cc2C(F)(F)F)CC1 [II-v-7]
346 nM | 407 nM | CCC(=O)NC1CCN(c2ccc(NC(=O)c3ccc(C)c(Oc4nc(-c5ccncc5)nc5c4cnn5C)c3)cc2C(F)(F)F)CC1 [II-v-8]
961 nM | 934 nM | CCC(=O)NCC1CCN(c2ccc(NC(=O)c3ccc(C)c(Oc4nc(-c5ccncc5)nc5c4cnn5C)c3)cc2C(F)(F)F)CC1 [II-v-9]
492 nM | 463 nM | CC(=O)NCC1CCN(c2ccc(NC(=O)c3ccc(C)c(Oc4nc(-c5cccnc5)nc5c4cnn5C)c3)cc2C(F)(F)F)CC1 [II-v-10]
546 nM | 646 nM | CC(=O)NCC1CCN(c2ccc(NC(=O)c3ccc(C)c(Oc4nc(-c5ccncc5)nc5c4cnn5C)c3)cc2C(F)(F)F)CC1 [II-v-11]
364 nM | 118 nM | CCC(=O)NC1CCN(c2ccc(NC(=O)c3ccc(C)c(Oc4nc(-c5cccnc5)nc5c4cnn5C)c3)cc2C(F)(F)F)CC1 [II-v-12]
533 nM | 587 nM | CC(=O)NC1CCN(c2ccc(NC(=O)c3ccc(C)c(Oc4nc(-c5ccncc5)nc5c4cnn5C)c3)cc2C(F)(F)F)CC1 [II-v-13]
73.9 nM | 69.3 nM | CCS(=O)(=O)NC1CCN(c2ccc(NC(=O)c3ccc(C)c(Oc4nc(-c5cccnc5)nc5c4cnn5C)c3)cc2C(F)(F)F)CC1 [II-v-14]
114 nM | 135 nM | CCS(=O)(=O)NC1CCN(c2ccc(NC(=O)c3ccc(C)c(Oc4nc(-c5ccncc5)nc5c4cnn5C)c3)cc2C(F)(F)F)CC1 [II-v-15]
2490 nM | 3070 nM | CCC(=O)NCC1CCN(c2ccc(NC(=O)c3ccc(C)c(Oc4nc(-c5cccnc5)nc5[nH]ncc45)c3)cc2C(F)(F)F)CC1 [II-v-16]
900 nM | 1040 nM | CCC(=O)NCC1CCN(c2ccc(NC(=O)c3ccc(C)c(Oc4nc(-c5ccncc5)nc5[nH]ncc45)c3)cc2C(F)(F)F)CC1 [II-v-17]
2810 nM | 1540 nM | CN1CCN(Cc2ccc(C(=O)Nc3cccc(Oc4nc(-c5cccnc5)nc5cc[nH]c45)c3)cc2C(F)(F)F)CC1 [III-h-1]
16.8 nM | 16.4 nM | CN1CCN(Cc2ccc(C(=O)Nc3cccc(Oc4nc(-c5ccncc5)nc5cc[nH]c45)c3)cc2C(F)(F)F)CC1 [III-h-2]
4100 nM | 2140 nM | CN1CCN(Cc2ccc(C(=O)Nc3cccc(Oc4nc(-c5cccnc5)nc5ccn(C)c45)c3)cc2C(F)(F)F)CC1 [III-h-3]
195 nM | 180 nM | CN1CCN(Cc2ccc(C(=O)Nc3cccc(Oc4nc(-c5ccncc5)nc5ccn(C)c45)c3)cc2C(F)(F)F)CC1 [III-h-4]
